In patent publication US8796201B2 (The Board of Trustees of the Leland Stanford Junior …, priority 2002, dated 2014):
Entries after “also recorded” stand apart in the source; their conditions may differ. Blank lines part the entries; values can stand above or below the compound they belong to. Where no end group is shown, it is not given here.

Experiments:
[1] = target: T1, EPB2 (Hordeum vulgare, UniProt P25250); experiment: Inhibition of EPB2 α2-gliadin digestion; format: biochemical, barley (Hordeum vulgare subsp. vulgare)
T1 construct: made in house; host or cells: E. coli BL21, plasmid pMTB1 (pET28b), inclusion bodies solubilised in 7 M urea
T1 sequence (P25250 134-373): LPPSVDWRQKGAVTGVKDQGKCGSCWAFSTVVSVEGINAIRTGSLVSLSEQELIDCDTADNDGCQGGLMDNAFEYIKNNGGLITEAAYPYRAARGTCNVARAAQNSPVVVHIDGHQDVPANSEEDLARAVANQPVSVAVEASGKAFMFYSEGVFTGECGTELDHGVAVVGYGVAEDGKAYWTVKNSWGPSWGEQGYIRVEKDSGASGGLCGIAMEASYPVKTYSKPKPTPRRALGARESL
Source text: The pH optimum of proEPB2 activation and α2-gliadin digestion is 2.4-3.5, which can therefore provide a treatment for Celiac Sprue consisting of oral administration of proEPB2.

[2] = tested on: gastric and pancreatic proteases; experiment: Gastric and pancreatic protease digestion of recombinant α2-gliadin; format: in vitro ADME; settings: extended reaction times
Source text: […]. […] No long intermediate is observed to accumulate.

[3] = tested on: human brush border membrane (BBM); format: in vitro ADME; settings: kidney or brush border membranes, 100 μM
Source text: (SEQ ID NO:12) […]

[4] = In vivo perfusion of peptides through rat jejunum; settings: 15-20 cm jejunum segment, residence time 20 min
Procedure: FIG. 5. In vivo brush border membrane digestion of peptides.
In Vivo Endopeptidase Activity. An adult (female or male) rat was anesthetized and maintained at 36-37° C. during the entire surgical procedure. The peritoneal cavity was opened, and a small incision was made at the beginning and the end of a 15-20 cm jejunum segment. Polyethylene catheters were inserted and secured into the two ends. The input catheter was connected with a pump-driven syringe filled with a solution. The jejunum segment was perfused initially with PBS buffer to remove any residual debris at a flow rate of 0.4 ml/min. Purified peptide solutions (peptide concentration ranges from 25-100 μM) were then perfused at 0.4 ml/min through the jejunum segment with a 10-40 min residence time. In the case of a co-perfusion, the input catheter is connected with two simultaneous syringes, one with a peptide solution and the other with the prolyl endopeptidase solution (concentration ranges from 50-500 μU/μl). Fluid from the output catheter was collected into small centrifuge tubes in dry ice for subsequent analysis. The collected digestive products were analyzed by HPLC on a C18 column.

[5] = tested on: rat brush border membrane (BBM) peptidases; format: in vitro ADME; settings: kidney or brush border membranes
Procedure: To investigate the digestion of gluten, liquid chromatography coupled mass spectroscopy analysis (LC-MS-MS) was utilized to investigate the pathways and associated kinetics of hydrolysis of immunodominant gliadin peptides treated with rat BBM preparations. Because the rodent is an excellent small animal model for human intestinal structure and function, rat BBM was chosen as a suitable model system for these studies.
BBM fractions were prepared from rat small intestinal mucosa as described in Ahnen et al. (1982) J. Biol. Chem. 257, 12129-35. […] No proline aminopeptidase (EC 3.4.11.5) or prolyl endopeptidase activity (PEP, EC 3.4.21.26) activity was detectable (<5 μU/μg). Alkaline phosphatase and sucrase were used as control BBM enzymes with activities of 66 μU/μg and 350 μU/μg, respectively.
BBM fractions were partially purified from the small intestinal mucosa of adult female rats maintained on an ad libitum diet of wheat-based standard rodent chow. Total protein content was determined by a modified method of Lowry with BSA as a standard. Alkaline phosphatase activity was determined with nitrophenyl phosphate. Sucrase activity was measured using a coupled glucose assay. […] PEP activity was determined continuously with 0.4 mM Z-Gly-Pro-pNA in PBS:H2O:dioxane (8:1.2:0.8) at 30° C. One unit is the consumption of 1 μmol substrate per minute.
Proteolysis with the BBM preparation was investigated using the peptide (SEQ ID NO:1) […], a product of chymotryptic digestion of α-9 gliadin (Arentz-Hansen et al. (2000) J. Exp. Med. 191, 603-12). […] It was subjected to BBM digestion, followed by LC-MS-MS analysis. A standard 50 μl digestion mixture contained 100 μM of synthetic peptide, 10 μM tryptophan and Cbz-tryptophan as internal standards, and resuspended BBM preparations with a final protein content of 27 ng/μl and exogenous proteins, as indicated, in phosphate buffered saline. After incubation at 37° C. for the indicated time, the enzymes were inactivated by heating to 95° C. for 3 minutes. The reaction mixtures were analyzed by LC-MS (SpectraSystem, ThermoFinnigan) using a C18 reversed phase column (Vydac 218TP5215, 2.1×150 mm) with water:acetonitrile:formic acid (0.1%):trifluoroacetic acid (0.025%) as the mobile phase (flow: 0.2 ml/min) and a gradient of 10% acetonitrile for 3 minutes, 10-20% for 3 minutes, 20-25% for 21 minutes followed by a 95% wash. Peptide fragments in the mass range of m/z=300-2000 were detected by electrospray ionization mass spectroscopy using a LCQ ion trap and their identities were confirmed by MSMS fragmentation patterns.
BBM fractions were prepared from rat small intestinal mucosa.

[6] = tested on: carboxypeptidase A (C-0261, Sigma) and/or leucine aminopeptidase (L-5006, Sigma); experiment: 10 μg/ml carboxypeptidase A and/or 5.9 μg/ml leucine aminopeptidase; settings: 37° C., up to 160 min
[7] = tested on: chymotrypsin; experiment: chymotrypsin
[8] = resuspended rat brush border membrane (BBM) preparations in phosphate buffered saline; settings: 37° C.
[9] = rat brush border membrane (BBM) protein preparations, 27 ng/μl, in phosphate buffered saline; settings: 37° C, up to overnight
[10] = BBM with captopril in phosphate buffered saline:Tris buffered saline=9:1; settings: rat, up to overnight
[11] = tested on: elastase; experiment: elastase at a high (non-physiological) concentration of 100 ng/μl
[12] = tested on: trypsin; experiment: trypsin
[13] = tested on: rabbit lung DCP (Cortex Biochemicals, CA); experiment: BBM with exogenous rabbit lung DCP in phosphate buffered saline:Tris buffered saline=9:1; settings: rat, up to overnight
[14] = tested on: DPP IV from Aspergillus fumigatus; experiment: rat BBM with exogenous DPP IV from Aspergillus fumigatus (0.28 μU DPP IV/ng BBM protein); settings: 37° C., up to four hours
[15] = tested on: prolyl endopeptidase (PEP, specific activity 28 μU/pg) from Flavobacterium meningosepticum (US Biological, MA); experiment: 27 ng/μl brush border membranes with exogenous prolyl endopeptidase from Flavobacterium meningosepticum; settings: rat, up to one hour

Compound: CC(=O)N[C@@H](CC(C)C)C(=O)N[C@@H](CC(C)C)C(=O)N[C@H](C=O)CCCNC(=N)N [leupeptin]
effect on α2-gliadin digestion by EPB2 [1]: inhibits this activity

Compound: LQLQPFPQPQLPYPQPQLPYPQPQLPYPQPQPF [33-mer]
stability toward gastric and pancreatic proteases [2]: remained intact despite prolonged exposure to proteases
Amount of Peptides Digested after 15 hours [3]: <20%
stability in the perfusion experiment [4]: most of the 33-mer gliadin peptide remained intact
half-life of digestion [5]: > 20 h

fragment found [6]: PQPQLPYPQPQLP
not cleaved [7]: No proteolysis was detected
cleaved bond [8]: P-Y, first_seen
not cleaved [9]: no observed N-terminal processing
fragment found [10]: PQPQLPYPQPQLP
cleaved bond [11]: Q-L
not cleaved [12]: No proteolysis was detected
fragment found [13]: PQPQLPYPQPQLP
Compound: PQPQLPYPQPQLPY

fragment found [6]: QLQPFPQPQLP; also recorded: QPFPQPQLP
fragment found [14]: QLQPFPQPQLP
cleaved bond [15]: P-Q, major
Compound: QLQPFPQPQLPY
